Measurements: publication PMC5065625, “Structure-mechanism-based engineering of chemical regulators targeting distinct pathological factors in Alzheimer's disease” (Nature Communications, 2016)

Tests used:
[1] = UV–vis variable-pH titration of Cu(II)–2 (binding affinity)
Procedure: The pKa value for 2 was determined by UV–vis variable-pH titrations as previously reported. To establish the pKa value, a solution (10 mM NaOH, pH 12, 100 mM NaCl) of 2 (100 μM) was titrated with small amounts of HCl. At least 30 spectra were recorded in the range of pH 2–10. Similarly, a solution containing CuCl2 and 2 (50 μM) in a metal to ligand ratio of 1:2 was titrated with small additions of HCl and at least 30 spectra were recorded over the range pH 2–7. The acidity and stability constants were calculated by using the HypSpec program (Protonic Software, UK)[56]. Speciation diagrams were modelled in the HySS2009 program (Protonic Software)[57].

[2] = test system: 5 × FAD AD mouse model; experiment: Cerebral amyloid pathology (ELISA, 4G8 immunohistochemistry, Congo red); format: in vivo; settings: 1 mg kg^−1 daily i.p., 30 days
From the text: (§1) The amyloidogenic characteristics of 5 × FAD mice have been described previously. In brief, 5 × FAD mice express the Swedish/London/Florida mutations of the human amyloid precursor protein (hAPP) and the M146L/L286V mutations of the human presenilin-1 (PSEN1). They develop the early and robust pathology of AD with the cognitive and behavioural impairments. The 5 × FAD mice have been widely used to test the possible efficacy of a compound targeted for AD[25][29]. We maintained the mice on a C57BL/6 × SJL hybrid background. All animal experiments were performed in accordance with the guidelines of the Asan Institute for Life Science for Laboratory Animal Care and Use (Seoul, Korea), where the animals had free access to water and food, and were housed on 12 h light/12 h dark cycle.
Chemicals used were freshly prepared shortly before administration to the animals. […]
We measured the levels of various types of Aβ in the brain as described previously. The protein fractions were serially prepared from the left hemispheres in PBS (pH 7.4), in 2% SDS and in 70% FA, and then subjected to the human Aβ40 and Aβ42 ELISA quantification according to the manufacturer's methods (Invitrogen, Carlsbad, CA, USA). The aggregated (Invitorgen) and oligomeric Aβ (82E1-specific; IBL International, Hamburg, Germany) ELISA quantifications were also performed using PBS fractions. The cerebral levels of Aβ40 and Aβ42 were represented as moles per gram of wet brain tissue, whereas the aggregated or oligomeric Aβ amounts were expressed as grams per gram of wet brain tissue.
12-μm sagittal sections of the brain were prepared from the right hemispheres on a cryostat (HM550; Microm, Walldorf, Germany), and mounted onto 1% poly-L-lysine-coated glass slides. […] The loads of amyloid deposits in the brain were expressed as the per cent area of 4G8-immunoreactive deposits or the number of congophilic plaques per mm^2 of a cortical region of interest.

[3] = test system: 5 × FAD AD mouse model; experiment: Morris water maze test; format: in vivo; settings: 1 mg kg^−1 daily i.p., 30 days
Procedure: (§2) Chemicals used were freshly prepared shortly before administration to the animals. We treated 5 × FAD mice with 1 (1 mg kg^−1 of body weight) or the vehicle (1% v/v DMSO in 20 mM HEPES, pH 7.4, 150 mM NaCl) starting at 3 months of age, which is the same method used in our previous studies. 1 was daily injected into the lower abdomen of the 5 × FAD mice for 30 days.
Mice were subjected to the Morris water maze test to assess their performance of spatial learning and memory. The water maze was a circular plastic pool (120 cm diameter) and filled with murky water (21.0±1.0 °C). A cylindrical escape platform (15 cm diameter) stood 0.5 cm under the water surface. Three hours after the 30th compound treatment, the mice were allowed the first training to swim and find the hidden escape platform in the water with three repeats per training. Thereafter, they daily tried the task on the next 4 consecutive days. Three hours after the final escape test, the platform was removed, and the mice exercised a probe trial for 60 s. The animal performance was traced with SMART Video Tracking System (Harvard Apparatus, Holliston, MA, USA).

[4] = test system: 5 × FAD mice; experiment: Tolerability and body weight during 30-day treatment; format: in vivo, mouse
From the text: as §1, §2

[5] = 1 mg kg^−1 daily, intraperitoneal, 30 days, 5 × FAD mice

COc1cc(NCc2ccccn2)cc(OC)c1 [compound 2, 3,5-dimethoxy-N-(pyridin-2-ylmethyl)aniline]
logβ (Cu + L = CuL) ([1]; Cu(II):L = 1:2, [2] = 50 μM): 5.6(8)
Approximate dissociation constant for Cu(II), 1:1 complex ([1]; UV–vis variable-pH titrations): micromolar range
pCu (=−log[Cu(II)]free) ([1]; pH 6.6): 6.24

Nc1ccc(NCc2ccccn2)cc1 [compound 1, N^1-(pyridin-2-ylmethyl)benzene-1,4-diamine]
Loads of Aβ deposits in the brain ([2]; 4G8-immunoreactive or congophilic plaques): reduced the loads of Aβ deposits
Amounts of Aβ oligomers and aggregates ([2]; ELISA, PBS fractions): decreased
Total Aβ level in the brain versus vehicle ([2]; PBS-, SDS- and FA-soluble Aβ40/Aβ42, ELISA): significantly lower
Finding the hidden escape platform (trial trainings) [3]: faster than the vehicle-treated 5 × FAD mice
Probe trials, long-term spatial memory [3]: significant improvement of the long-term spatial memory
Body weight versus vehicle-treated mice [4, 5]: no difference in body weight
Tolerability of repeated treatments [4, 5]: tolerated the repeated treatments
Body weight, female, day 1 ([4]; 5×FAD mice, 1 mg/kg/day, mean): 20.8 gram
Body weight, female, day 3 ([4]; 5×FAD mice, 1 mg/kg/day, mean): 20.8 gram
Body weight, female, day 6 ([4]; 5×FAD mice, 1 mg/kg/day, mean): 20.8 gram
Body weight, female, day 9 ([4]; 5×FAD mice, 1 mg/kg/day, mean): 21.0 gram
Body weight, female, day 12 ([4]; 5×FAD mice, 1 mg/kg/day, mean): 21.2 gram
Body weight, female, day 15 ([4]; 5×FAD mice, 1 mg/kg/day, mean): 20.8 gram
Body weight, female, day 18 ([4]; 5×FAD mice, 1 mg/kg/day, mean): 21.2 gram
Body weight, female, day 21 ([4]; 5×FAD mice, 1 mg/kg/day, mean): 21.4 gram
Body weight, female, day 24 ([4]; 5×FAD mice, 1 mg/kg/day, mean): 21.4 gram
Body weight, female, day 27 ([4]; 5×FAD mice, 1 mg/kg/day, mean): 21.8 gram
Body weight, female, day 30 ([4]; 5×FAD mice, 1 mg/kg/day, mean): 21.6 gram
Body weight, male, day 1 ([4]; 5×FAD mice, 1 mg/kg/day, mean): 28.0 gram
Body weight, male, day 3 ([4]; 5×FAD mice, 1 mg/kg/day, mean): 27.6 gram
Body weight, male, day 6 ([4]; 5×FAD mice, 1 mg/kg/day, mean): 27.6 gram
Body weight, male, day 9 ([4]; 5×FAD mice, 1 mg/kg/day, mean): 27.8 gram
Body weight, male, day 12 ([4]; 5×FAD mice, 1 mg/kg/day, mean): 27.4 gram
Body weight, male, day 15 ([4]; 5×FAD mice, 1 mg/kg/day, mean): 27.8 gram
Body weight, male, day 18 ([4]; 5×FAD mice, 1 mg/kg/day, mean): 28.0 gram
Body weight, male, day 21 ([4]; 5×FAD mice, 1 mg/kg/day, mean): 27.8 gram
Body weight, male, day 24 ([4]; 5×FAD mice, 1 mg/kg/day, mean): 27.6 gram
Body weight, male, day 27 ([4]; 5×FAD mice, 1 mg/kg/day, mean): 28.0 gram
Body weight, male, day 30 ([4]; 5×FAD mice, 1 mg/kg/day, mean): 27.0 gram
